Source: the NIST ThermoML archive (doi:10.1016/j.fluid.2016.02.031)
± gives the expanded uncertainty stated by the source.

Test: xn = mol fraction of the nth substance listed
Settings: 100 kPa, Liquid; for viscosity: Concentric cylinders viscometry; for mass density: Vibrating tube method

OCCCO [propan-1,3-diol] + CCC(C)=O
Settings	mass density [kg/m3]	viscosity [mPa·s]
288.15 K, x1 = 0.1052	834.263 ± 0.2	0.5783 ± 0.0079
288.15 K, x1 = 0.2004	855.981 ± 0.2	0.8238 ± 0.01
288.15 K, x1 = 0.3002	879.545 ± 0.2	1.258 ± 0.015
288.15 K, x1 = 0.4003	904.311 ± 0.2	2.132 ± 0.024
288.15 K, x1 = 0.4999	929.443 ± 0.19	3.633 ± 0.04
288.15 K, x1 = 0.5992	954.483 ± 0.19	6.313 ± 0.069
288.15 K, x1 = 0.6992	979.932 ± 0.18	11.18 ± 0.12
288.15 K, x1 = 0.7989	1003.76 ± 0.18	20.31 ± 0.22
288.15 K, x1 = 0.8998	1028.39 ± 0.19	37.46 ± 0.41
288.15 K, x1 = 1	1055.96 ± 0.19	68.06 ± 0.75
293.15 K, x1 = 0.1052	829.229 ± 0.21	0.5513 ± 0.0076
293.15 K, x1 = 0.2004	851.106 ± 0.2	0.7652 ± 0.0097
293.15 K, x1 = 0.3002	874.858 ± 0.2	1.144 ± 0.014
293.15 K, x1 = 0.4003	899.864 ± 0.2	1.889 ± 0.022
293.15 K, x1 = 0.4999	925.2 ± 0.19	3.143 ± 0.035
293.15 K, x1 = 0.5992	950.438 ± 0.19	5.35 ± 0.059
293.15 K, x1 = 0.6992	976.1 ± 0.19	9.291 ± 0.1
293.15 K, x1 = 0.7989	1000.12 ± 0.18	16.48 ± 0.18
293.15 K, x1 = 0.8998	1024.96 ± 0.19	29.8 ± 0.32
293.15 K, x1 = 1	1052.87 ± 0.19	52.75 ± 0.55
298.15 K, x1 = 0.1052	824.172 ± 0.21	0.5185 ± 0.0073
298.15 K, x1 = 0.2004	846.22 ± 0.2	0.714 ± 0.0092
298.15 K, x1 = 0.3002	870.166 ± 0.2	1.046 ± 0.013
298.15 K, x1 = 0.4003	895.391 ± 0.2	1.688 ± 0.019
298.15 K, x1 = 0.4999	920.936 ± 0.19	2.744 ± 0.031
298.15 K, x1 = 0.5992	946.376 ± 0.19	4.578 ± 0.05
298.15 K, x1 = 0.6992	972.256 ± 0.19	7.804 ± 0.085
298.15 K, x1 = 0.7989	996.448 ± 0.18	13.57 ± 0.15
298.15 K, x1 = 0.8998	1021.51 ± 0.19	24.01 ± 0.26
298.15 K, x1 = 1	1049.76 ± 0.19	41.97 ± 0.45
303.15 K, x1 = 0.1052	819.09 ± 0.21	0.4891 ± 0.007
303.15 K, x1 = 0.2004	841.328 ± 0.2	0.6674 ± 0.0088
303.15 K, x1 = 0.3002	865.461 ± 0.2	0.9604 ± 0.012
303.15 K, x1 = 0.4003	890.9 ± 0.2	1.517 ± 0.018
303.15 K, x1 = 0.4999	916.653 ± 0.19	2.414 ± 0.027
303.15 K, x1 = 0.5992	942.296 ± 0.19	3.957 ± 0.044
303.15 K, x1 = 0.6992	968.392 ± 0.19	6.624 ± 0.072
303.15 K, x1 = 0.7989	992.685 ± 0.18	11.3 ± 0.12
303.15 K, x1 = 0.8998	1018 ± 0.19	19.67 ± 0.21
303.15 K, x1 = 1	1046.64 ± 0.19	33.56 ± 0.36
308.15 K, x1 = 0.1052	813.976 ± 0.21	0.4633 ± 0.0068
308.15 K, x1 = 0.2004	836.391 ± 0.2	0.6247 ± 0.0083
308.15 K, x1 = 0.3002	860.732 ± 0.2	0.8841 ± 0.011
308.15 K, x1 = 0.4003	886.382 ± 0.2	1.379 ± 0.016
308.15 K, x1 = 0.4999	912.346 ± 0.2	2.141 ± 0.024
308.15 K, x1 = 0.5992	938.196 ± 0.19	3.447 ± 0.038
308.15 K, x1 = 0.6992	964.512 ± 0.19	5.663 ± 0.062
308.15 K, x1 = 0.7989	989.056 ± 0.18	9.517 ± 0.1
308.15 K, x1 = 0.8998	1014.59 ± 0.19	16.21 ± 0.18
308.15 K, x1 = 1	1043.5 ± 0.18	27.15 ± 0.29
313.15 K, x1 = 0.1052	808.832 ± 0.21	0.4382 ± 0.0066
313.15 K, x1 = 0.2004	831.418 ± 0.21	0.5847 ± 0.008
313.15 K, x1 = 0.3002	855.978 ± 0.2	0.8163 ± 0.01
313.15 K, x1 = 0.4003	881.838 ± 0.2	1.237 ± 0.015
313.15 K, x1 = 0.4999	908.015 ± 0.2	1.909 ± 0.022
313.15 K, x1 = 0.5992	934.073 ± 0.19	3.025 ± 0.034
313.15 K, x1 = 0.6992	960.613 ± 0.19	4.879 ± 0.053
313.15 K, x1 = 0.7989	985.317 ± 0.18	8.064 ± 0.088
313.15 K, x1 = 0.8998	1011.06 ± 0.19	13.49 ± 0.15
313.15 K, x1 = 1	1040.35 ± 0.18	22.22 ± 0.24
318.15 K, x1 = 0.1052	803.661 ± 0.21	0.4141 ± 0.0064
318.15 K, x1 = 0.2004	826.427 ± 0.21	0.548 ± 0.0076
318.15 K, x1 = 0.3002	851.191 ± 0.2	0.7557 ± 0.0097
318.15 K, x1 = 0.4003	877.271 ± 0.2	1.127 ± 0.013
318.15 K, x1 = 0.4999	903.664 ± 0.2	1.711 ± 0.02
318.15 K, x1 = 0.5992	929.93 ± 0.19	2.671 ± 0.03
318.15 K, x1 = 0.6992	956.69 ± 0.19	4.237 ± 0.047
318.15 K, x1 = 0.7989	981.556 ± 0.19	6.885 ± 0.075
318.15 K, x1 = 0.8998	1007.51 ± 0.19	11.33 ± 0.12
318.15 K, x1 = 1	1037.18 ± 0.18	18.35 ± 0.2
323.15 K, x1 = 0.1052	798.453 ± 0.21	0.3908 ± 0.0062
323.15 K, x1 = 0.2004	821.409 ± 0.21	0.5165 ± 0.0073
323.15 K, x1 = 0.3002	846.386 ± 0.2	0.7008 ± 0.0091
323.15 K, x1 = 0.4003	872.674 ± 0.2	1.03 ± 0.013
323.15 K, x1 = 0.4999	899.282 ± 0.2	1.542 ± 0.018
323.15 K, x1 = 0.5992	925.759 ± 0.19	2.372 ± 0.027
323.15 K, x1 = 0.6992	952.744 ± 0.19	3.702 ± 0.041
323.15 K, x1 = 0.7989	977.808 ± 0.19	5.939 ± 0.065
323.15 K, x1 = 0.8998	1004.01 ± 0.19	9.603 ± 0.1
323.15 K, x1 = 1	1033.98 ± 0.18	15.29 ± 0.17
328.15 K, x1 = 0.1052	793.206 ± 0.21	0.3682 ± 0.0059
328.15 K, x1 = 0.2004	816.363 ± 0.21	0.484 ± 0.007
328.15 K, x1 = 0.3002	841.54 ± 0.2	0.6507 ± 0.0086
328.15 K, x1 = 0.4003	868.041 ± 0.2	0.9438 ± 0.012
328.15 K, x1 = 0.4999	894.87 ± 0.2	1.393 ± 0.016
328.15 K, x1 = 0.5992	921.56 ± 0.19	2.121 ± 0.024
328.15 K, x1 = 0.6992	948.774 ± 0.19	3.257 ± 0.036
328.15 K, x1 = 0.7989	974.119 ± 0.19	5.165 ± 0.056
328.15 K, x1 = 0.8998	1000.59 ± 0.18	8.217 ± 0.089
328.15 K, x1 = 1	1030.77 ± 0.18	12.84 ± 0.14
333.15 K, x1 = 0.1052	787.917 ± 0.21	0.3461 ± 0.0058
333.15 K, x1 = 0.2004	811.298 ± 0.21	0.4456 ± 0.0066
333.15 K, x1 = 0.3002	836.659 ± 0.21	0.6058 ± 0.0082
333.15 K, x1 = 0.4003	863.375 ± 0.2	0.8671 ± 0.011
333.15 K, x1 = 0.4999	890.43 ± 0.2	1.271 ± 0.015
333.15 K, x1 = 0.5992	917.332 ± 0.2	1.911 ± 0.022
333.15 K, x1 = 0.6992	944.777 ± 0.19	2.894 ± 0.032
333.15 K, x1 = 0.7989	970.698 ± 0.19	4.581 ± 0.05
333.15 K, x1 = 0.8998	997.503 ± 0.18	7.128 ± 0.077
333.15 K, x1 = 1	1027.53 ± 0.18	10.96 ± 0.12
